The values that follow come from patent publication US20170051014A1, “PEPTIDE HAVING EFFICACY FOR REMEDYING HYPOPIGMENTATION AND INHIBITING ADIPOGENESIS, AND USE OF SAME” (CAREGEN CO., LTD., priority 2014, published 2017).

Bridge positions count the residues as written; N and C are the ends.

The conditions of data set [1]: cited from earlier work; for side effects / weight loss effect: background statement on marketed anti-obesity drugs.
The test system of the next data set is perilipin. In words: Adipogenesis-related gene expression by RT-PCR: perilipin. The format is cell-based. As to conditions: 3T3-L1 cells with differentiation inducing material, incubation for 7 days. As to the method: (§1) Pre-adipocytes (3T3-L1 cell line) were incubated on 6-well plates for 48 hours, and then treated with the present peptide with different concentrations together with a differentiation composition (0.5 mM IBMX, […], […]), followed by incubation for 7 days. After the incubation, PT-PCR was conducted using primers specific to perilipin and PPARγ, which are genes involved in the adipogenesis mechanism. It was investigated whether the mRNA values of perilipin and PPARγ were inhibited.
(§2) Target-specific primer sequences used in PCR for enzymes involved in adipogenesis were as follows: perilipin forward primer sequence, 5′-[…]-3′ and perilipin reverse primer sequence, 5′-[…]-3′ (annealing temperature, 60° C.); PPARγ forward primer sequence, 5′-[…]-3′ and PPARγ reverse primer sequence, 5′-[…]-3′ (annealing temperature, 60° C.)

In data set [2] the test system is Pre-adipocytes (3T3-L1 cell line). Put plainly: Measurement of triglyceride amount in differentiating pre-adipocytes. The format is cell-based. As to conditions: 3T3-L1 cells with differentiation inducing material, incubation for 7 days, absorbance 540 nm. As to the method: Pre-adipocytes (3T3-L1 cell line) were incubated on 24-well plates for 48 hours, and then treated with the peptide of the present invention with different concentrations together with a differentiation composition (0.5 mM IBMX, […], […]), followed by incubation for 7 days. The cells were taken off, and then put in a dissolution buffer (50 mM Tris, 150 mM NaCl, 1% Triton X-100, proteolytic enzyme inhibitor), and kept in ice for 30 minutes. After centrifugation at 14,000 g for 10 minutes, the supernatant containing an oil layer was collected, and a triglyceride reagent was added thereto, followed by reaction in an incubator at 37° C. for 5 minutes. The absorbance was measured at 540 nm to determine the amount of triglycerides.

The subject of data set [3] is tyrosinase. Put plainly: Melanogenic enzyme protein level by western blot: tyrosinase. As to conditions: B16F10 cells, 6-hour treatment and 24-hour treatment. The format is cell-based, mouse. The protocol: Melanocytes (B16F10 cell line) were incubated on 6-well culture plates in an incubator for 24 hours, and were treated with the peptide of the present invention with different concentrations. […] The test was conducted using an anti-tyrosinase antibody (Santa Cruz Biotechnology, USA).
For orientation: In western blotting, separated proteins are transferred to a membrane and probed.

For a further data set, the system named is TRP1. In words: Melanogenic enzyme gene level by RT-PCR: TRP1. It is filed as cell-based, mouse. As to conditions: B16F10 cells, 6-hour treatment and 24-hour treatment. The protocol:
(§3) Melanocytes (B16F10 cell line) were incubated on 6-well culture plates in an incubator for 24 hours, and were treated with the peptides of the present invention with different concentrations. After the incubation for hours, the cells were taken off, and then, the increases in the expressions of tyrosinase and TRP1, which are enzymes involved in melanogenesis, were observed by RT-PCR using primers specific thereto.
(§4) Target-specific primer sequences used in PCR for enzymes involved in melanogenesis were as follows: Tyrosinase forward primer sequence, 5′-[…]-3′ and tyrosinase reverse primer sequence, 5′-[…]-3′ (annealing temperature, 51° C.); TRP1 forward primer sequence, 5′-[…]-3′ and TRP1 reverse primer sequence, 5′-[…]-3′ (annealing temperature, 60° C.)

For a further data set, the system named is PPARγ. In words: Adipogenesis-related gene expression by RT-PCR: PPARγ. To be noted: 3T3-L1 cells with differentiation inducing material, incubation for 7 days. It is filed as cell-based. As to the method: as §1, §2
For data set [4], the system named is tyrosinase. Put plainly: Melanogenic enzyme gene level by RT-PCR: tyrosinase. It is filed as cell-based, mouse. To be noted: B16F10 cells, 6-hour treatment and 24-hour treatment. The protocol: as §3, §4
The test system of the next data set is MITF. Put plainly: Melanogenesis signaling molecules by western blot: MITF. The format is cell-based, mouse. To be noted: B16F10 cells, observed over time (6 to 24 hours). The protocol: Melanocytes (B16F10 cell line) were incubated on 6-well culture plates in an incubator for 24 hours, and were treated with the peptide of the present invention with different concentrations. After the cells were incubated for from 6 to 24 hours, the cells were dissolved, […], which are signaling molecules involved in melanogenesis, were observed by western blot assay using antibodies specific thereto. The test was carried out using anti-pCREB antibody (Santa Cruz Biotechnology, USA) and anti-MITF antibody (Santa Cruz Biotechnology, USA).

A further data set has as its system CREB. Put plainly: Melanogenesis signaling molecules by western blot: CREB phosphorylation. The format is cell-based, mouse. To be noted: B16F10 cells, observed over time (6 to 24 hours). The protocol:
Melanocytes (B16F10 cell line) were incubated on 6-well culture plates in an incubator for 24 hours, and were treated with the peptide of the present invention with different concentrations. After the cells were incubated for from 6 to 24 hours, the cells were dissolved, and then the CREB phosphorylation and MITF expression, which are signaling molecules involved in melanogenesis, were observed by western blot assay using antibodies specific thereto. The test was carried out using anti-pCREB antibody (Santa Cruz Biotechnology, USA) and anti-MITF antibody (Santa Cruz Biotechnology, USA).

Turning to `CC(C)CC(N(C)C)C1(c2ccc(Cl)cc2)CCC1` (stereo not shown) [Reductil], in [1], the side effects result is “cardiovascular diseases, such as stroke and myocardial infarction”; the weight loss effect is 5-10%.
In the case of `CCCCCCCCCCC[C@@H](C[C@@H]1OC(=O)[C@H]1CCCCCC)OC(=O)[C@H](CC(C)C)NC=O` [Xenical], in data set [1], the side effects entry was “frequent diarrhea” and the weight loss effect is on record as 2-3%.
Regarding `Cn1c(=O)c2[nH]cnc2n(C)c1=O` [aminophylline], in data set [1] (background statement on anti-obesity drugs), the “effect of reducing body fat” value is “excellent effect of reducing body fat”. Moreover, the side effects entry in [1] is “broad side effects throughout the mental nervous system, circulatory system, and digestive system”.
Regarding “NH2-Gln-Cys-Arg-Phe-Phe-Arg-Ser-Ala-Cys-COOH (H-QCRFFRSAC-OH; cysteine pairing not given here) [SEQ ID NO: 1]”, in the data set with perilipin, the “gene expression of perilipin” value is “reduced compared with a control”. In addition, in data set [2], the “level of triglycerides accumulated in cells” value was “reduced in a concentration-dependent manner”. Moreover, the “expression of tyrosinase protein” value in the data set with tyrosinase [3] is on record as “increased compared with a control”. Also, the “expression of TRP1 gene” value in the data set with TRP1 was “increased compared with a control”. In the data set with PPARγ, the “gene expression of PPARγ” value is on record as “reduced compared with a control”. For the same compound, the “expression of tyrosinase gene” value in the data set on tyrosinase [4] is “increased compared with a control”. Further, the “MITF protein expression level” value with MITF was “increased”. Further, the “phosphorylation level of CREB” value in the data set on CREB is “increased”.
With “NH2-Tyr-Cys-Arg-Phe-Phe-Asn-Ala-Phe-Cys-COOH (H-YCRFFNAFC-OH; disulfide 2-9 (inferred)) [SEQ ID NO: 2]”, the “gene expression of perilipin” value in the data set on perilipin is listed as “reduced compared with a control”. Besides, the “level of triglycerides accumulated in cells” value in data set [2] is given as “reduced in a concentration-dependent manner”. The “expression of tyrosinase protein” value with tyrosinase [3] is listed as “increased compared with a control”. Further, the “expression of TRP1 gene” value with TRP1 is on record as “increased compared with a control”. In addition, in the data set on PPARγ, the “gene expression of PPARγ” value is reported as “reduced compared with a control”. Further, in the data set with tyrosinase [4], the “expression of tyrosinase gene” value is “increased compared with a control”. Further, the “MITF protein expression level” value in the data set with MITF was “increased”. Besides, in the data set on CREB, the “phosphorylation level of CREB” value was “increased”.
